In article PMC11845477, “Exploring the principles behind antibiotics with limited resistance” (Nature Communications, 2025):
Where a SMILES comes first, the peptide text is derived from it. Bridges are numbered along the chain shown (N, C = ends). [ ]: non-standard residue; d: D form. The star is where a group is joined. X1 = NC[C@@H](CC(=O)*)c1cccc(Cl)c1; Dab = NCC[C@H](N)C(=O)O; Dap = NC[C@H](N)C(=O)O

Assays:
[1] = tested on: K. pneumoniae ATCC 10031 (SEN) and K. pneumoniae ATCC 700603 (MDR); assay: Adaptive laboratory evolution (ALE), relative MIC of evolved lines; format: cell-based, Klebsiella pneumoniae; conditions: Klebsiella pneumoniae ATCC 700603 (KP-MDR)
Procedure, shortened: (§1)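 Ten parallel populations per antibiotic–ancestor pair were evolved in MHB at 37 °C, starting near 50% growth-inhibiting drug. Every 72 h they were passaged into 0.5–2.5× increasing concentrations, keeping the highest-drug well with OD600 > 0.2.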

[2] = tested on: E. coli ATCC 25922 (SEN) and E. coli NCTC13846 (MDR); assay: as above; format: cell-based, Escherichia coli
Procedure, shortened: as §1

`CC(C)C[C@@H]1NC(=O)[C@@H](Cc2ccccc2)NC(=O)[C@H](CCN)NC(=O)[C@@H](NC(=O)[C@H](CN)NC(=O)[C@@H](NC(=O)C[C@H](CN)c2cccc(Cl)c2)[C@@H](C)O)CCNC(=O)[C@H]([C@@H](C)O)NC(=O)[C@H](CCN)NC(=O)[C@H](CCN)NC1=O` [SPR206] (X1-T[Dap][Dab][Dab][dF]L[Dab][Dab]T; lactam 3-C (inferred); N-terminus assumed) was tested, and the “Relative MIC” value ([1]; evolved line 6) was 512, the “Relative MIC” value ([1]; evolved line 7) was 512 and the “Relative MIC” value ([1]; evolved line 8) was 1024. The “Relative MIC” value ([1]; evolved line 9) was 1024, the “Relative MIC” value ([1]; evolved line 10) was 512 and the “Relative MIC” value ([2]; ALE, E. coli ATCC 25922 (EC-SEN), evolved line 1) was 512. For the same compound, the “Relative MIC” value ([2]; ALE, E. coli ATCC 25922 (EC-SEN), evolved line 2) was 256, the “Relative MIC” value ([2]; ALE, E. coli ATCC 25922 (EC-SEN), evolved line 3) was 512 and the “Relative MIC” value ([2]; ALE, E. coli ATCC 25922 (EC-SEN), evolved line 4) was 256. For the same compound, the “Relative MIC” value ([2]; ALE, E. coli ATCC 25922 (EC-SEN), evolved line 5) was 128, the “Relative MIC” value ([2]; ALE, E. coli ATCC 25922 (EC-SEN), evolved line 6) was 512 and the “Relative MIC” value ([2]; ALE, E. coli ATCC 25922 (EC-SEN), evolved line 7) was 256. For the same compound, the “Relative MIC” value ([2]; ALE, E. coli ATCC 25922 (EC-SEN), evolved line 8) was 128, the “Relative MIC” value ([2]; ALE, E. coli ATCC 25922 (EC-SEN), evolved line 9) was 256 and the “Relative MIC” value ([2]; ALE, E. coli ATCC 25922 (EC-SEN), evolved line 10) was 16. For the same compound, the “Relative MIC” value ([2]; ALE, E. coli NCTC 13846 (EC-MDR), evolved line 1) was 8, the “Relative MIC” value ([2]; ALE, E. coli NCTC 13846 (EC-MDR), evolved line 2) was 16 and the “Relative MIC” value ([2]; ALE, E. coli NCTC 13846 (EC-MDR), evolved line 3) was 16. The “Relative MIC” value ([2]; ALE, E. coli NCTC 13846 (EC-MDR), evolved line 4) was 16, the “Relative MIC” value ([2]; ALE, E. coli NCTC 13846 (EC-MDR), evolved line 5) was 32 and the “Relative MIC” value ([2]; ALE, E. coli NCTC 13846 (EC-MDR), evolved line 6) was 8. The “Relative MIC” value ([2]; ALE, E. coli NCTC 13846 (EC-MDR), evolved line 7) was 8, the “Relative MIC” value ([2]; ALE, E. coli NCTC 13846 (EC-MDR), evolved line 8) was 16 and the “Relative MIC” value ([2]; ALE, E. coli NCTC 13846 (EC-MDR), evolved line 9) was 16. For the same compound, the “Relative MIC” value ([2]; ALE, E. coli NCTC 13846 (EC-MDR), evolved line 10) was 32, the “Relative MIC (log10)” value ([2]; EC-MDR (Escherichia coli NCTC 13846), evolved line 2) was 1.204 log10 and the “Relative MIC (log10)” value ([2]; EC-MDR (Escherichia coli NCTC 13846), evolved line 4) was 1.204 log10. For the same compound, the “Relative MIC (log10)” value ([2]; EC-MDR (Escherichia coli NCTC 13846), evolved line 8) was 1.204 log10, the “Relative MIC (log10)” value ([2]; EC-MDR (Escherichia coli NCTC 13846), evolved line 9) was 1.204 log10 and the “Relative MIC (log10)” value ([2]; EC-MDR (Escherichia coli NCTC 13846), evolved line 10) was 1.505 log10. For the same compound, the MIC of evolved line ([2]; EC-MDR (NCTC 13846), evolved line 1) was 32 µg/mL, the “Relative MIC” value ([2]; EC-MDR (NCTC 13846), evolved line 1, evolved vs ancestor) was 8 and the MIC of evolved line ([2]; EC-MDR (NCTC 13846), evolved line 2) was 64 µg/mL. The “Relative MIC” value ([2]; EC-MDR (NCTC 13846), evolved line 2, evolved vs ancestor) was 16, the “Relative MIC” value ([2]; EC-MDR (NCTC 13846), evolved line 3, evolved vs ancestor) was 16 and the MIC of evolved line ([2]; EC-MDR (NCTC 13846), evolved line 4) was 64 µg/mL. For the same compound, the “Relative MIC” value ([2]; EC-MDR (NCTC 13846), evolved line 4, evolved vs ancestor) was 16, the “Relative MIC” value ([2]; EC-MDR (NCTC 13846), evolved line 5, evolved vs ancestor) was 32 and the “Relative MIC” value ([2]; EC-MDR (NCTC 13846), evolved line 6, evolved vs ancestor) was 8. For the same compound, the MIC of evolved line ([2]; EC-MDR (NCTC 13846), evolved line 7) was 32 µg/mL, the “Relative MIC” value ([2]; EC-MDR (NCTC 13846), evolved line 7, evolved vs ancestor) was 8 and the “Relative MIC” value ([2]; EC-MDR (NCTC 13846), evolved line 8, evolved vs ancestor) was 16. For the same compound, the “Relative MIC” value ([2]; EC-MDR (NCTC 13846), evolved line 9, evolved vs ancestor) was 16, the “Relative MIC” value ([2]; EC-MDR (NCTC 13846), evolved line 10, evolved vs ancestor) was 32 and the MIC of evolved line ([2]; EC-MDR NCTC 13846, evolved line 3) was 64 µg/mL. For the same compound, the MIC of evolved line ([2]; EC-MDR NCTC 13846, evolved line 5) was 128 µg/mL, the MIC of evolved line ([2]; EC-MDR NCTC 13846, evolved line 6) was 32 µg/mL and the MIC of evolved line ([2]; EC-MDR NCTC 13846, evolved line 8) was 64 µg/mL. For the same compound, the MIC of evolved line ([2]; EC-MDR NCTC 13846, evolved line 9) was 64 µg/mL, the MIC of evolved line ([2]; EC-MDR NCTC 13846, evolved line 10) was 128 µg/mL and the MIC of evolved line ([2]; EC-SEN (ATCC 25922), evolved line 1) was 128 µg/mL. The “Relative MIC” value ([2]; EC-SEN (ATCC 25922), evolved line 1, evolved vs ancestor) was 512, the MIC of evolved line ([2]; EC-SEN (ATCC 25922), evolved line 2) was 64 µg/mL and the “Relative MIC” value ([2]; EC-SEN (ATCC 25922), evolved line 2, evolved vs ancestor) was 256. The MIC of evolved line ([2]; EC-SEN (ATCC 25922), evolved line 3) was 128 µg/mL, the “Relative MIC” value ([2]; EC-SEN (ATCC 25922), evolved line 3, evolved vs ancestor) was 512 and the MIC of evolved line ([2]; EC-SEN (ATCC 25922), evolved line 4) was 64 µg/mL. The “Relative MIC” value ([2]; EC-SEN (ATCC 25922), evolved line 4, evolved vs ancestor) was 256, the MIC of evolved line ([2]; EC-SEN (ATCC 25922), evolved line 5) was 32 µg/mL and the “Relative MIC” value ([2]; EC-SEN (ATCC 25922), evolved line 5, evolved vs ancestor) was 128. For the same compound, the MIC of evolved line ([2]; EC-SEN (ATCC 25922), evolved line 6) was 128 µg/mL, the “Relative MIC” value ([2]; EC-SEN (ATCC 25922), evolved line 6, evolved vs ancestor) was 512 and the MIC of evolved line ([2]; EC-SEN (ATCC 25922), evolved line 7) was 64 µg/mL. For the same compound, the “Relative MIC” value ([2]; EC-SEN (ATCC 25922), evolved line 7, evolved vs ancestor) was 256, the MIC of evolved line ([2]; EC-SEN (ATCC 25922), evolved line 8) was 32 µg/mL and the “Relative MIC” value ([2]; EC-SEN (ATCC 25922), evolved line 8, evolved vs ancestor) was 128. For the same compound, the MIC of evolved line ([2]; EC-SEN (ATCC 25922), evolved line 9) was 64 µg/mL, the “Relative MIC” value ([2]; EC-SEN (ATCC 25922), evolved line 9, evolved vs ancestor) was 256 and the MIC of evolved line ([2]; EC-SEN (ATCC 25922), evolved line 10) was 4 µg/mL. For the same compound, the “Relative MIC” value ([2]; EC-SEN (ATCC 25922), evolved line 10, evolved vs ancestor) was 16, the “Relative MIC (log10)” value ([2]; EC-SEN (Escherichia coli ATCC 25922), evolved line 3) was 2.709 log10 and the “Relative MIC (log10)” value ([2]; EC-SEN (Escherichia coli ATCC 25922), evolved line 4) was 2.408 log10. The “Relative MIC (log10)” value ([2]; EC-SEN (Escherichia coli ATCC 25922), evolved line 6) was 2.709 log10, the “Relative MIC (log10)” value ([2]; EC-SEN (Escherichia coli ATCC 25922), evolved line 9) was 2.408 log10 and the “Relative MIC (log10)” value ([2]; EC-SEN, Escherichia coli ATCC 25922, evolved line 1) was 2.709 log10. For the same compound, the “Relative MIC” value ([2]; Escherichia coli ATCC 25922 (EC-SEN), evolved line 1) was 512, the “Relative MIC” value ([2]; Escherichia coli ATCC 25922 (EC-SEN), evolved line 2) was 256 and the “Relative MIC” value ([2]; Escherichia coli ATCC 25922 (EC-SEN), evolved line 3) was 512. For the same compound, the “Relative MIC” value ([2]; Escherichia coli ATCC 25922 (EC-SEN), evolved line 4) was 256, the “Relative MIC” value ([2]; Escherichia coli ATCC 25922 (EC-SEN), evolved line 5) was 128 and the “Relative MIC” value ([2]; Escherichia coli ATCC 25922 (EC-SEN), evolved line 6) was 512. The “Relative MIC” value ([2]; Escherichia coli ATCC 25922 (EC-SEN), evolved line 7) was 256, the “Relative MIC” value ([2]; Escherichia coli ATCC 25922 (EC-SEN), evolved line 8) was 128 and the “Relative MIC” value ([2]; Escherichia coli ATCC 25922 (EC-SEN), evolved line 9) was 256. The “Relative MIC” value ([2]; Escherichia coli ATCC 25922 (EC-SEN), evolved line 10) was 16, the “Relative MIC” value ([2]; Escherichia coli NCTC 13846 (EC-MDR), evolved line 1) was 8 and the “Relative MIC” value ([2]; Escherichia coli NCTC 13846 (EC-MDR), evolved line 2) was 16. For the same compound, the “Relative MIC” value ([2]; Escherichia coli NCTC 13846 (EC-MDR), evolved line 3) was 16, the “Relative MIC” value ([2]; Escherichia coli NCTC 13846 (EC-MDR), evolved line 4) was 16 and the “Relative MIC” value ([2]; Escherichia coli NCTC 13846 (EC-MDR), evolved line 5) was 32. The “Relative MIC” value ([2]; Escherichia coli NCTC 13846 (EC-MDR), evolved line 6) was 8, the “Relative MIC” value ([2]; Escherichia coli NCTC 13846 (EC-MDR), evolved line 7) was 8 and the “Relative MIC” value ([2]; Escherichia coli NCTC 13846 (EC-MDR), evolved line 8) was 16. For the same compound, the “Relative MIC” value ([2]; Escherichia coli NCTC 13846 (EC-MDR), evolved line 9) was 16 and the “Relative MIC” value ([2]; Escherichia coli NCTC 13846 (EC-MDR), evolved line 10) was 32.
